For orientation: pIC50 means the negative decadic logarithm of the IC50, by convention in mol/L.

pIC50: −log10 of the molar value. Structures can show the parent of a compound that is named as a salt.

NLRP3, sequence (Q96P20 whole entry): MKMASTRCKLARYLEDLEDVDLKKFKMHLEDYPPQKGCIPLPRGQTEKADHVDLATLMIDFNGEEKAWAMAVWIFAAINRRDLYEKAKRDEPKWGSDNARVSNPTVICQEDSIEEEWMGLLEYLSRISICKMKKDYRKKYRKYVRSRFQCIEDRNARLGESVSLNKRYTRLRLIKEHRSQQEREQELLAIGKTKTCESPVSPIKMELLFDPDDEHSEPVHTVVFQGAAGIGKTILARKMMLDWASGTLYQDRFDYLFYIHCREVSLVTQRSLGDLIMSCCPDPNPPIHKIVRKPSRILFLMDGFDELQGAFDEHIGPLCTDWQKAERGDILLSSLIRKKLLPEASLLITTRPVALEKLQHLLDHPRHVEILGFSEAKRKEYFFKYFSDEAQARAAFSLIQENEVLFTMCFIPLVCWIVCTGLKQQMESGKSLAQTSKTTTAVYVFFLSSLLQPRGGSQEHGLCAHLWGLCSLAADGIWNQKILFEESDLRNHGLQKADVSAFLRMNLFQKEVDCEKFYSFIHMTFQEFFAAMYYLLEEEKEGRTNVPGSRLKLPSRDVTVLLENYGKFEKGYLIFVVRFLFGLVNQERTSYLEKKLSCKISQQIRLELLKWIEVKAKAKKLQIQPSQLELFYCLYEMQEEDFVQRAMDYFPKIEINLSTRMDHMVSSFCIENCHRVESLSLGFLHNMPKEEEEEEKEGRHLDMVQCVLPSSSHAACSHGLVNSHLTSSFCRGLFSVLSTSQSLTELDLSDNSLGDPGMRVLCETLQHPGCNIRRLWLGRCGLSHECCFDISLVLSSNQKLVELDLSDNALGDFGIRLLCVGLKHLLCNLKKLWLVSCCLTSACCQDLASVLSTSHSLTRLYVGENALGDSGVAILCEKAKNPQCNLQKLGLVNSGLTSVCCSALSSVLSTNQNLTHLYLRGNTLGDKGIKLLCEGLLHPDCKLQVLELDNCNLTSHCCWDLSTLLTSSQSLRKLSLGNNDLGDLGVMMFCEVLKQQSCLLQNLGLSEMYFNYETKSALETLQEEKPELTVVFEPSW

This assay deals with NLRP3 (Homo sapiens, UniProt Q96P20). Nature of the assay: THP-1 cells pyroptosis assay (LPS + nigericin, resazurin read-out). The format is cell-based. Also on record: Seed THP-1 cells (25,000 cells/well) containing 1.0 μg/ml LPS; host or cells: THP-1 cells. As to conditions: THP-1 cells, 1 μg/ml LPS, 5 μM nigericin; NLRP3 inhibitory activity; read-out: THP IC50. How it is done:
THP-1 cells (ATCC #TIB-202) were grown in RPMI containing L-glutamine (Gibco #11835) supplemented with 1 mM sodium pyruvate (Sigma #S8636) and penicillin (100 units/ml)/streptomycin (0.1 mg/ml) (Sigma #P4333) in 10% Fetal Bovine Serum (FBS) (Sigma #F0804). The cells were routinely passaged and grown to confluency (˜10^6 cells/ml). On the day of the experiment, THP-1 cells were harvested and resuspended into RPMI medium (without FBS). The cells were then counted and viability (>90%) checked by Trypan blue (Sigma #T8154). Appropriate dilutions were made to give a concentration of 625,000 cells/ml. To this diluted cell solution was added LPS (Sigma #L4524) to give a 1 μg/ml Final Assay Concentration (FAC). 40 μl of the final preparation was aliquoted into each well of a 96-well plate. The plate thus prepared was used for compound screening.
The following method step-by-step assay was followed for compound screening. • 1. Seed THP-1 cells (25,000 cells/well) containing 1.0 μg/ml LPS in 40 μl of RPMI medium (without FBS) in 96-well, black walled, clear bottom cell culture plates coated with poly-D-lysine (VWR #734-0317) • 2. Add 5 μl compound (8 points half-log dilution, with 10 μM top dose) or vehicle (DMSO 0.1% FAC) to the appropriate wells • 3. Incubate for 3 hrs at 37° C., 5% CO2 • 4. Add 5 μl nigericin (Sigma #N7143) (FAC 5 μM) to all wells • 5. Incubate for 1 hr at 37° C., 5% CO2 • 6. At the end of the incubation period, spin plates at 300×g for 3 mins and remove supernatant • 7. Then add 50 μl of resazurin (Sigma #R7017) (FAC 100 μM resazurin in RPMI medium without FBS) and incubate plates for a further 1-2 hrs at 37° C. and 5% CO2 • 8. Plates were read in an Envision reader at Ex 560 nm and Em 590 nm • 9. IC50 data is fitted to a non-linear regression equation (log inhibitor vs response-variable slope 4-parameters)
In general terms: Resazurin is reduced to fluorescent resorufin, in cell work by metabolically active cells.
Take `COCCN(C)S(=O)(=O)NC(=O)Nc1c2c(cc3c1CCC3)CCC2` [Example 7, 3-Methyl-((2-Methoxyethyl)sulfamoyl)-1-(1,2,3,5,6,7-hexahydro-s-indacen-4-yl)urea, potassium salt]: the pIC50 is > 6.00.

Consider `CC(C)CN(CCN(C)C)S(=O)(=O)NC(=O)Nc1c2c(cc3c1CCC3)CCC2` [Example 12, 3-(N-(2-(Dimethylamino)ethyl)-N-isobutylsulfamoyl)-1-(1,2,3,5,6,7-hexahydro-s-indacen-4-yl)urea, potassium salt], for which the pIC50 was > 5.30.

As to `CN(C)CCN(CCc1ccccc1)S(=O)(=O)NC(=O)Nc1c2c(cc3c1CCC3)CCC2` [Example 13, 3-(N-(2-(Dimethylamino)ethyl)-N-phenethylsulfamoyl)-1-(1,2,3,5,6,7-hexahydro-s-indacen-4-yl)urea, potassium salt], the pIC50 was > 6.00.

For the compound `CC(CN(C)C)NS(=O)(=O)NC(=O)Nc1c2c(cc3c1CCC3)CCC2` (centres unmarked) [Example 16, 3-(N-(1-(Dimethylamino)propan-2-yl)sulfamoyl)-1-(1,2,3,5,6,7-hexahydro-s-indacen-4-yl)urea, potassium salt], the pIC50 was > 5.30.

For `CN(C)C1CN(S(=O)(=O)NC(=O)Nc2c3c(cc4c2CCC4)CCC3)C1` [Example 17, 3-(Dimethylamino)-N-((1,2,3,5,6,7-hexahydro-s-indacen-4-yl)carbamoyl)azetidine-1-sulfonamide, potassium salt], the pIC50 was > 6.00.

On to `CCN(CC)CCN(CC)S(=O)(=O)NC(=O)Nc1c2c(cc3c1CCC3)CCC2` [Example 18, 3-(N-(2-(Diethylamino)ethyl)-N-ethylsulfamoyl)-1-(1,2,3,5,6,7-hexahydro-s-indacen-4-yl)urea, potassium salt], for which the pIC50 is > 5.30.

As for `CCN1CCCC(NS(=O)(=O)NC(=O)Nc2c3c(cc4c2CCC4)CCC3)C1` (centres unmarked) [Example 19, 3-(N-(1-Ethylpiperidin-3-yl)sulfamoyl)-1-(1,2,3,5,6,7-hexahydro-s-indacen-4-yl)urea, potassium salt], the pIC50 is > 6.00.

For `CCN1CCN(S(=O)(=O)NC(=O)Nc2c3c(cc4c2CCC4)CCC3)CC1` [Example 21, 4-Ethyl-N-((1,2,3,5,6,7-hexahydro-s-indacen-4-yl)carbamoyl) piperazine-1-sulfonamide], the pIC50 is > 5.30.

On to `CN1CCCCC1CN(C)S(=O)(=O)NC(=O)Nc1c2c(cc3c1CCC3)CCC2` (centres unmarked) [Example 22, 3-(N-methyl-N-((1-methylpiperidin-2-yl)methyl)sulfamoyl)-1-(1,2,3,5,6,7-hexahydro-s-indacen-4-yl)urea, potassium salt], for which the pIC50 is > 6.30.

In the case of `O=C(Nc1c2c(cc3c1CCC3)CCC2)NS(=O)(=O)N1CC(N2CCCC2)C1` [Example 23, potassium salt], the pIC50 was > 5.30.

For the compound `O=C1Cc2cc(NS(=O)(=O)NC(=O)Nc3c4c(cc5c3CCC5)CCC4)ccc2N1` [Example 24, 3-(N-(2-Oxoindolin-5-yl)sulfamoyl)-1-(1,2,3,5,6,7-hexahydro-s-indacen-4-yl)urea, potassium salt], the pIC50 was > 5.00.

Turning to `CC(CN(C)C)N(C)S(=O)(=O)NC(=O)Nc1c2c(cc3c1CCC3)CCC2` (centres unmarked) [Example 27, 3-(N-(1-(dimethylamino)propan-2-yl)-N-methyl)sulfamoyl)-1-(1,2,3,5,6,7-hexahydro-s-indacen-4-yl)urea, potassium salt], the pIC50 is > 6.00.

`CNCCN(C)S(=O)(=O)NC(=O)Nc1c2c(cc3c1CCC3)CCC2` [Example 32, 3-(N-Methyl-N-(2-(methylamino)ethyl))sulfamoyl)-1-(1,2,3,5,6,7-hexahydro-s-indacen-4-yl)urea, potassium salt]: the pIC50 was > 5.30.

On to `CC(C)N1[C@@H]2CC[C@H]1C[C@@H](NS(=O)(=O)NC(=O)Nc1c3c(cc4c1CCC4)CCC3)C2` [Example 33, (1R,3r,5S)-8-Isopropyl-8-azabicyclo[3.2.1]octan-3-(N-((1,2,3,5,6,7-hexahydro-s-indacen-4-yl)carbamoyl)-sulfonamide)], for which the pIC50 is > 5.30.

As to `CC(=O)N(C)CCN(C)S(=O)(=O)NC(=O)Nc1c2c(cc3c1CCC3)CCC2` [Example 41, N-(2-((N-((1,2,3,5,6,7-Hexahydro-s-indacen-4-yl)carbamoyl)sulfamoyl)(methyl)amino)ethyl)-N-methylacetamide, potassium salt], the pIC50 was > 5.30.

With `CN(C)CCCCNS(=O)(=O)NC(=O)Nc1c2c(cc3c1CCC3)CCC2` [Example 48, 3-(N-(4-(Dimethylamino)butyl)sulfamoyl)-1-(1,2,3,5,6,7-hexahydro-s-indacen-4-yl)urea, potassium salt], the pIC50 is > 6.00.

In the case of `CN(C)CCN(CCN(C)C)S(=O)(=O)NC(=O)Nc1c2c(cc3c1CCC3)CCC2` [Example 51, 3-(N,N-Bis(2-(dimethylamino)ethyl)sulfamoyl)-1-(1,2,3,5,6,7-hexahydro-s-indacen-4-yl)urea, potassium salt], the pIC50 is > 5.00.

In the case of `CCN(CC)CCN(C)S(=O)(=O)NC(=O)Nc1c2c(cc3c1CCC3)CCC2` [Example 53, 3-(N-(2-(Diethylamino)ethyl)-N-methyl)sulfamoyl)-1-(1,2,3,5,6,7-hexahydro-s-indacen-4-yl)urea, potassium salt], the pIC50 is > 5.30.

Regarding `O=C(Nc1c2c(cc3c1CCC3)CCC2)NS(=O)(=O)NCCCCO` [Example 54, 3-((N-(4-Hydroxybutyl))sulfamoyl)-1-(1,2,3,5,6,7-hexahydro-s-indacen-4-yl)urea, potassium salt], the pIC50 is > 5.30.

For `Cn1ccc(NS(=O)(=O)NC(=O)Nc2c3c(cc4c2CCC4)CCC3)n1` [Example 55, 3-((N-(1-Methyl-1H-pyrazol-3-yl))sulfamoyl)-1-(1,2,3,5,6,7-hexahydro-s-indacen-4-yl)urea, potassium salt], the pIC50 was > 6.00.

Take `CN(C)C(C)(C)CNS(=O)(=O)NC(=O)Nc1c2c(cc3c1CCC3)CCC2` [Example 57, 3-(N-(2-(Dimethylamino)-2-methylpropyl)sulfamoyl)-1-(1,2,3,5,6,7-hexahydro-s-indacen-4-yl)urea, potassium salt]: the pIC50 was > 5.30.

`CN(C)CC(C)(C)NS(=O)(=O)NC(=O)Nc1c2c(cc3c1CCC3)CCC2` [Example 59, 3-(N-(1-(Dimethylamino)-2-methylpropan-2-yl)sulfamoyl)-1-(1,2,3,5,6,7-hexahydro-s-indacen-4-yl)urea, potassium salt]: the pIC50 is > 5.30.

On to `O=C(Nc1c2c(cc3c1CCC3)CCC2)NS(=O)(=O)N1CCN2CCC1C2` (centres unmarked) [Example 60, potassium salt], for which the pIC50 was > 6.00.

With `CC(C)N1[C@@H]2CC[C@H]1C[C@H](NS(=O)(=O)NC(=O)Nc1c3c(cc4c1CCC4)CCC3)C2` [Example 63, (1R,3s,5S)-8-isopropyl-8-azabicyclo[3.2.1]octan-3-(N-((1,2,3,5,6,7-hexahydro-s-indacen-4-yl)carbamoyl)-sulfonamide)], the pIC50 was > 6.00.

In the case of `CCN(CC)[C@H]1C[C@H]2CC[C@@H](C1)N2S(=O)(=O)NC(=O)Nc1c2c(cc3c1CCC3)CCC2` [Example 64, (1R,3r,5S)-3-(Diethylamino)-N-((1,2,3,5,6,7-hexahydro-s-indacen-4-yl)carbamoyl)-8-azabicyclo[3.2.1]octane-8-sulfonamide], the pIC50 was > 6.30.

For `CN1C[C@@H]2C[C@H]1CN2S(=O)(=O)NC(=O)Nc1c2c(cc3c1CCC3)CCC2` [Example 67, (1S,4S)—N-((1,2,3,5,6,7-Hexahydro-s-indacen-4-yl)carbamoyl)-5-methyl-2,5-diazabicyclo[2.2.1]heptane-2-sulfonamide, potassium salt], the pIC50 was > 6.00.

As to `CN1CC(CNS(=O)(=O)NC(=O)Nc2c3c(cc4c2CCC4)CCC3)C1` [Example 69, 3-(N-((1-Methylazetidin-3-yl)methyl)sulfamoyl)-1-(1,2,3,5,6,7-hexahydro-s-indacen-4-yl)urea, potassium salt], the pIC50 was > 6.00.

Consider `O=C(Nc1c2c(cc3c1CCC3)CCC2)NS(=O)(=O)N1[C@@H]2CC[C@H]1C[C@@H](N1CCCC1)C2` [Example 70, (1R,3r,5S)—N-((1,2,3,5,6,7-Hexahydro-s-indacen-4-yl)carbamoyl)-3-(pyrrolidin-1-yl)-8-azabicyclo[3.2.1]octane-8-sulfonamide], for which the pIC50 was > 6.00.

For the compound `CCN1[C@@H]2CC[C@H]1C[C@H](NS(=O)(=O)NC(=O)Nc1c3c(cc4c1CCC4)CCC3)C2` [Example 74, (1R,3s,5S)-8-Ethyl-8-azabicyclo[3.2.1]octan-3-(N-((1,2,3,5,6,7-hexahydro-s-indacen-4-yl)carbamoyl)-sulfonamide)], the pIC50 was > 5.30.

Values taken from US12187702B2, “Sulfonamideurea compounds” (Inflazome Limited, priority 2018, dated 2025).
